Experimental data published in patent US20120225019A1, “Dual Fluorescence Assay For Determining Viability Of Parasitic Or Non-Parasitic Worms” (priority 2009, published 2012).
“Also recorded” adds a separate entry of the source. Structures can show the parent of a compound that is named as a salt.

Tests used:
[1] = tested on: Haemonchus contortus L3 larvae; test: Haemonchus contortus FTIR; assay type: cell-based; details: worm samples; 3 mg/ml in DMSO added at 1/100; 24 hours at 37° C.
Description: 1. Haemonchus contortus L3 larvae were exsheated in 5% sodium hypochlorite for 10 minutes.
2. Following exsheathment the larvae were pelleted by centrifugation at 200×g for 2 minutes, the supernatant was removed and replaced with 1×PBS. This wash step was repeated twice to remove any traces of sodium hypochlorite then resuspended in DMEM containing L-glutamine and pen-strep but lacking in phenol red.
3. The larvae were aliquoted into a 384 well plate at approx. 100 larvae per well.
4. Compounds to be tested (aldicarb, levamisole and ivermectin) were made up at 3 mg/ml in DMSO then added to test wells at 1/100.
5. An identical quantity of DMSO, lacking any compound, was added to control wells.
6. The larvae were cultured for 24 hours at 37° C. following the addition of compounds (see FIG. 11). Wells containing media and compounds, but lacking in larvae, were also set up as controls for background.
For FTIR, two samples were run from each well containing larvae. The first consisted of 10 μl of supernatant taken from the top of the well without any disturbance. The second consisted of 10 μl containing worms and any sediment stirred up from the bottom of the well. A third 10 μl sample of media containing compounds but no larvae was also run for elimination of drug chemistry. Samples were dried at 50° C. for 45 minutes to prevent interference from water before being loaded into the FTIR machine.
Collected spectra were analysed using PyChem software. Two analyses were run for all data: principle components analysis (PCA; which compresses all of the data into smaller, discreet (2) components without there being any assumptions made) and discriminate function analysis (DFA; which takes information provided about class structure to run an algorithm to maximise distances between groups (different drug treatments) and minimise distances within groups (replicates of the same drug treatment)). The circles on the DFA graphs represent mean group centres i.e. treatments that segregate with confidence intervals of 95% (inner circle) and 99% (outer circle).

[2] = tested on: schistosomula; details: previously published activities; cited from earlier work
[3] = tested on: Schistosoma mansoni schistosomula; test: dual-fluorescence (PI/FDA) schistosomula viability assay; assay type: cell-based; details: 10 μM, 24 hr
Description: Schistosoma mansoni (Puerto Rican strain) infected Biomphalaria glabrata snails were provided by Fred Lewis (Biomedical Research Institute, Rockville, Md., USA). Cercariae were shed from infected snails by exposure to light (60 min at room temperature, RT) and subsequently converted to schistosomula by mechanical transformation (Colley D G, Wikel S K (1974) Schistosoma mansoni: simplified method for the production of schistosomules. Experimental Parasitology 35: 44-51). Schistosomula were purified away from cercarial tails by centrifugation through a 60% percoll gradient (Lazdins J K, Stein M J, David J R, Sher A (1982) Schistosoma mansoni: rapid isolation and purification of schistosomula of different developmental stages by centrifugation on discontinuous density gradients of Percoli. Experimental Parasitology 53: 39).
Microscope examination was used to assess the quantity and quality of purified schistosomula. Schistosomula were cultured at 37° C. in T25 tissue culture flasks containing 9 ml DMEM (Dulbecco's Modified Eagle Medium, Sigma-Aldrich), lacking phenol red but containing 4500 mg/I glucose, supplemented with 10% foetal calf serum, 2 mM L-glutamine, 200 U/ml penicillin, 200 μg/ml streptomycin (all Sigma-Aldrich) in an atmosphere of 5% CO2 for 24 hr before any further experimental manipulations proceeded. Negligible parasite death occurred in this media during the 24 hr culturing period. Following this, schistosomula were aliquoted into black-sided, flat-bottom (optically clear), 96-well microtiter plates (Fisher Scientific) in 200 μl media or black-sided, flat-bottom (optically clear), 384-well microtiter plates (Matrix) in 40 μl media.
Stock solutions of all compounds were made up at 1 mM in appropriate solvents and stored at −80° C. All compounds were added to black-sided, flat-bottom (optically clear), 96-well microtiter plates containing schistosomula (1000 parasites/well in triplicate) at 10 μM concentrations. Schistosomula were cultured (as already indicated; 37° C., 5% CO2) in the presence of each compound for 24 hr before viability levels were assessed.
After the 24 hr culturing period in the presence of test compounds, and prior to addition of fluorescent dyes, all schistosomula were washed three times to remove test compound and culture media supplements. Each wash consisted of centrifuging microtiter plates containing schistosomula at 100×g for 5 min, removal of half the old culture media and replacement with an equal quantity of fresh DMEM (lacking phenol red). After washing the parasites, […] and FDA were simultaneously added to each well of the microtiter plate to obtain a final concentration of 2.0 μg/ml and 0.5 μg/ml respectively.
The 96-well microtiter plates, now containing fluorescently labeled parasites, were subsequently loaded into a BMG Labtech Polarstar Omega plate reader containing appropriate filters for the simultaneous detection of PI (544 nm excitation/620 nm emission) and FDA (485 nm excitation/520 nm emission). All fluorescent values were obtained with the plate reader incubator set at 37° C. to ensure efficient esterase conversion of FDA to fluorescein within live schistosomula. The plate reader automatically sets the photo multiplier tube (PMT) gain for each fluorescent dye and this may slightly vary between experiments. Inclusion of appropriate control samples (live and dead schistosomula) compensates for any inter-plate variations in gain settings.
All data were exported into Microsoft Excel for organization and into Minitab (Version 14) for statistical analyses. A One-Way Analysis of Variance (ANOVA) followed by post hoc testing with Fisher's least significant difference (LSD) was used to detect statistical differences between treatments. […].
Numbers of live and dead schistosomula in each well of a microtiter plate were calculated using the following equations: […]

[4] = tested on: in vitro cultured, mechanically-transformed schistosomula; details: 10 μM, 24 hr after treatment; cited from earlier work
[5] = tested on: Schistosoma mansoni schistosomula; test: microscopic examination of compound-treated schistosomula; assay type: cell-based; details: 24 hr
Description: Live and heat killed schistosomula stained with optimal concentrations (empirically derived from Jones K, Senft J (1985) An improved method to determine cell viability by simultaneous staining with fluorescein diacetate-propidium iodide. The Journal of Histochemistry and Cytochemistry 33: 77-79) of propidium iodide (PI, 2.0 μg/ml; Sigma-Aldrich), fluorescein diacetate (FDA, 0.5 μg/ml; Sigma-Aldrich) or both fluorophores were visualized at ×100 magnification using a Leica Axioplan microscope equipped with FITC (494 excitation) and Rhodamine (536 excitation) filters and a mercury vapor light source. A Hamamatsu CA74295 camera with Wasabi Version 1.4 software was used to capture photographic images of stained schistosomula.
Schistosomula, co-incubated with test compounds, were fluorescently visualized as above or unstained at ×100 magnification using an Olympus CK2 inverted microscope equipped with a stage extension plate and specimen holder for handling microtiter plates. A Kodak EasyShare DX7440 digital camera was used to capture images of unstained schistosomula.

[6] = tested on: Schistosoma mansoni schistosomula; test: dual-fluorescence (PI/FDA) schistosomula viability assay; assay type: cell-based

Row | Compound | previously described effect on schistosomula phenotype [2] | schistosomula viability by dual-fluorescent viability assay [3] | other results
1 | CNC(=O)O/N=C/C(C)(C)SC [aldicarb] | – | – | FTIR separation of treatment from DMSO control, worms [1]: good separation
2 | C[C@@H]1[C@H](O)[C@@H](C)/C=C/C=C/C=C/C=C/C=C/C=C/C=C/[C@H](O[C@@H]2O[C@H](C)[C@@H](O)[C@H](N)[C@@H]2O)C[C@@H]2O[C@](O)(C[C@@H](O)C[C@@H](O)[C@H](O)CC[C@@H](O)C[C@@H](O)CC(=O)O[C@H]1C)C[C@H](O)[C@H]2C(=O)O [amphotericin b] | induce schistosomula mortality | induced measurable death | –
3 | CC(=O)OC[C@H]1O[C@@H]([S-])[C@H](OC(C)=O)[C@@H](OC(C)=O)[C@@H]1OC(C)=O.CCP(CC)CC.[Au+] [auranofin] | – | – | lethality to schistosomula estimated by light microscopy [4]: 100%; PI/FDA staining of schistosomula by epifluorescent microscopy ([5]; 1 μM auranofin): displayed cells that were stained with either PI or FDA throughout the body; death confirmed by microscopic examination of schistosomula ([5]; 10 μM): 100%; auranofin-mediated mortality compared to vehicle treated (DMSO) or untreated parasites ([6]; 5 μM, 2.5 μM and 1.25 μM, 24 hr): Statistically-significant; anti-schistosomula effect (viability per drug concentration) ([6]; 24 hours post-treatment): clear and titratable anti-schistosomula effect; anti-schistosomula LD50 activity ([6]; auranofin titration series, fluorescent-based microtiter plate quantification, 24 hr): 0.82 µM
4 | CC(C)COCC(CN(Cc1ccccc1)c1ccccc1)N1CCCC1 (stereo not shown) [bepridil] | – | none showed strong decreases in viability | –
5 | C[C@@](Cc1ccc(O)c(O)c1)(NN)C(=O)O [carbidopa] | – | none showed strong decreases in viability | –
6 | CN(C)CCCN1c2ccccc2Sc2ccc(Cl)cc21 [chlorpromazine hydrochloride] | induce schistosomula over-activity | did not affect schistosomula viability | –
7 | Cc1cc(C2CCCCC2)n(O)c(=O)c1 [ciclopirox] | – | none showed strong decreases in viability | schistosomula phenotype by microscopic examination ([5]; 10 μM): shape alterations in schistosomula phenotype
8 | Nc1[nH]c(=O)ncc1F [flucytosine] | – | none showed strong decreases in viability | –
9 | CNCCC(Oc1ccc(C(F)(F)F)cc1)c1ccccc1 (stereo not shown) [fluoxetine hydrochloride] | induce schistosomula over-activity | did not affect schistosomula viability | –
10 | CC(C)=CCC[C@]1(C)C=Cc2c(O)c3c(c(CC=C(C)C)c2O1)O[C@]12C(=C[C@@H]4C[C@H]1C(C)(C)O[C@@]2(C/C=C(/C)C(=O)O)C4=O)C3=O [gambogic acid] | induce schistosomula mortality | induced measurable death | –
11 | c1ccc([C@H]2CN3CCSC3=N2)cc1 [levamisole] | – | – | FTIR separation of treatment from DMSO control, worms [1]: good separation
12 | Clc1ccc(COC(Cn2ccnc2)c2ccc(Cl)cc2Cl)c(Cl)c1 (stereo not shown) [miconazole nitrate] | shape alteration (‘rounded’ phenotype) | did not affect schistosomula viability | –
13 | O=C(Nc1ccc([N+](=O)[O-])cc1Cl)c1cc(Cl)ccc1O [niclosamide] | induce schistosomula mortality | fluorescent viability measurements similar to those derived from untreated parasites | –
14 | O=C(C1CCCCC1)N1CC(=O)N2CCc3ccccc3C2C1 (stereo not shown) [praziquantel] | shape alteration (‘rounded’ phenotype) | did not affect schistosomula viability; also recorded: does not kill in vitro | schistosomula phenotype by microscopic examination ([5]; 10 μM): strong rounded phenotype
15 | COC(=O)[C@H]1[C@H]2C[C@@H]3c4[nH]c5cc(OC)ccc5c4CCN3C[C@H]2C[C@@H](OC(=O)/C=C/c2cc(OC)c(OC)c(OC)c2)[C@@H]1OC [rescinnamine] | – | none showed strong decreases in viability | –
16 | CC[C@@H](C(=O)[C@@H](C)[C@@H](O)[C@H](C)[C@@H]1O[C@@H]([C@@H](CC)C(=O)O)CC[C@@H]1C)[C@H]1O[C@]2(C=C[C@@H](O)[C@]3(CC[C@@](C)([C@H]4CC[C@](O)(CC)[C@H](C)O4)O3)O2)[C@H](C)C[C@@H]1C [sodium salinomycin] | induce schistosomula mortality | fluorescent viability measurements similar to those derived from untreated parasites | schistosomula phenotype by microscopic examination ([5]; 10 μM): strongly FDA positive (with some PI positive cells) (FIG. 6C), dark and granular (FIG. 6H), but motile
17 | CC[C@]1(O)C[C@@H]2CN(CCc3c([nH]c4ccccc34)[C@@](C(=O)OC)(c3cc4c(cc3OC)N(C)[C@H]3[C@@](O)(C(=O)OC)[C@H](OC(C)=O)[C@]5(CC)C=CCN6CC[C@]43[C@@H]65)C2)C1 [vinblastine] | – | none showed strong decreases in viability | –
18 | ivermectin | – | – | FTIR separation of treatment from DMSO control, worms [1]: good separation
